In patent publication US8569292B2, “Cyclic inhibitors of 11β-hydroxysteroid dehydrogenase 1” (Vitae Pharmaceuticals, Inc., priority 2008, dated 2013):

Experiments:
11β-HSD1 [1] = target: T1, 11β-HSD1 (Homo sapiens, UniProt P28845); assay: Biological Test Example 4: microsomal 11β-HSD1 in the presence of 50% human plasma; settings: for Shift: IC50 in Test Example 4 divided by IC50 in Test Example 1
11β-HSD1 [2] = target: T1, 11β-HSD1; assay: biochemical; settings: for inhibition at 0.1 µM: read-out: Average % inhibition at 100 nM
CYP2C9 = target: T2, CYP2C9 (Homo sapiens, UniProt P11712); assay: Biological Test Example 9: CYP2C9 inhibition (Invitrogen kit, fluorogenic OOMR); format: in vitro ADME
T2 construct: purchased Invitrogen 2859; host or cells: insect cells infected with baculovirus (microsomes)

[3] = Biological Test Example 1 IC50 (nM)
[4] = IC50 Range, Biological Test Example 1

T2 sequence (P11712 whole entry): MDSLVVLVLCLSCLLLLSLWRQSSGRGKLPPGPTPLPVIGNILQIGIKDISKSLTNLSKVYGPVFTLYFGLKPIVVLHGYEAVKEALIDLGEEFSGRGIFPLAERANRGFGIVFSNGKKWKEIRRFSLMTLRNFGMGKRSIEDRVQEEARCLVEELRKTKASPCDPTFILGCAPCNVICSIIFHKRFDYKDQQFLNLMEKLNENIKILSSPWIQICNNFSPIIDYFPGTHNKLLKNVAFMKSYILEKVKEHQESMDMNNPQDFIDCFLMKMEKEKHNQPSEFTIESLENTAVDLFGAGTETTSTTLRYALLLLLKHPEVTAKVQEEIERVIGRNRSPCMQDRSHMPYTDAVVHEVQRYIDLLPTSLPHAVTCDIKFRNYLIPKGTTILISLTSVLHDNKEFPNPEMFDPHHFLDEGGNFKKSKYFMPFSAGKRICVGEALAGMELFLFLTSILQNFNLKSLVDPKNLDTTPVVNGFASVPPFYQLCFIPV
T1 sequence (P28845 whole entry): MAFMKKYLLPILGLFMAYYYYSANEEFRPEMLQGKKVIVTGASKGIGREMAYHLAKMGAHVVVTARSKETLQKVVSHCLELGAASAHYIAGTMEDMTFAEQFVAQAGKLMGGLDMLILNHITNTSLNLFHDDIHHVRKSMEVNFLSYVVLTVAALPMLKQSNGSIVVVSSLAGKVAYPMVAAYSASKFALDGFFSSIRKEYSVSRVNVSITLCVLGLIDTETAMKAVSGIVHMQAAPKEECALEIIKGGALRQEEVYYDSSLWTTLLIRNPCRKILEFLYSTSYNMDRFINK

IC50 (11β-HSD1 [1]) [nM]	Shift (11β-HSD1 [1])	IC50 (11β-HSD1 [2]; [3]) [nM]	IC50 (11β-HSD1 [2]; [4]) [nM]	inhibition at 0.1 µM (11β-HSD1 [2]) [%]	IC50 (CYP2C9) [nM]	Structure (SMILES)
86.4	26.9	3.2	< 100	95.5	2700	Cc1cc(-c2ccc([C@H](C)N3CC[C@@](C)(c4ccc(F)cc4)OC3=O)cc2)ccn1 (single isomer, unassigned) [EXAMPLE 107.1]
269	83.8	3.2	< 100	93.6	17500	Cc1cc(-c2ccc([C@H](C)N3CC[C@](C)(c4ccc(F)cc4)OC3=O)cc2)ccn1 (single isomer, unassigned) [EXAMPLE 107.2]
4.3	0.9	4.9	< 100	93.3	5300	C[C@@H](c1ccc(-c2ccc(C(C)(C)O)nn2)cc1)N1CC[C@](CC(C)(C)O)(c2ccccc2)OC1=O [EXAMPLE 7, (S)-6-(2-hydroxy-2-methylpropyl)-3-((S)-1-(4-(6-(2-hydroxypropan-2-yl)pyridazin-3-yl)phenyl)ethyl)-6-phenyl-1,3-oxazinan-2-one]
4.5	5.0	0.9	< 100	93.4	20100	C[C@@H](c1ccc(-c2cnc(-n3ccnc3)nc2)cc1)N1CC[C@](CC(C)(C)O)(c2ccccc2)OC1=O [EXAMPLE 14, (S)-3-((S)-1-(4-(2-(1H-imidazol-1-yl)pyrimidin-5-yl)phenyl)ethyl)-6-(2-hydroxy-2-methylpropyl)-6-phenyl-1,3-oxazinan-2-one]
6.1	2.5	2.5	< 100	94.3	8500	C[C@@H](c1ccc(-c2cccnc2)cc1)N1CC[C@](CCO)(c2ccc(F)cc2)OC1=O [EXAMPLE 37, (S)-6-(4-fluorophenyl)-6-(2-hydroxyethyl)-3-((S)-1-(4-(pyridin-3-yl)phenyl)ethyl)-1,3-oxazinan-2-one]
4.2		0.7	< 100	100	1400	C[C@@H](c1ccc(-c2ccc(C(F)(F)F)nc2)cc1)N1CC[C@](CCCO)(c2ccc(F)cc2)OC1=O [EXAMPLE 44, (R)-6-(4-fluorophenyl)-6-(3-hydroxypropyl)-3-((S)-1-(4-(6-(trifluoromethyl)pyridin-3-yl)phenyl)ethyl)-1,3-oxazinan-2-one]
13.5		3	< 100	96.7	9000	C[C@@H](c1ccc(-c2cc[nH]n2)cc1)N1CC[C@](CCCO)(c2ccccc2)OC1=O [EXAMPLE 45, (R)-3-((S)-1-(4-(1H-pyrazol-3-yl)phenyl)ethyl)-6-(3-hydroxypropyl)-6-phenyl-1,3-oxazinan-2-one]
60.7	40.6	1.5	< 100	96.1	700	C=CC[C@]1(c2ccc(F)cc2)CCN([C@@H](C)c2ccc(-c3cncc(F)c3)cc2)C(=O)O1 [EXAMPLE 51, (R)-6-allyl-6-(4-fluorophenyl)-3-((S)-1-(4-(5-fluoropyridin-3-yl)phenyl)ethyl)-1,3-oxazinan-2-one]
18.5	14.6	1.3	< 100	98.7	6600	COc1cncc(-c2ccc([C@H](C)N3CC[C@](CCCO)(c4ccc(F)cc4)OC3=O)cc2)c1 [EXAMPLE 53, (R)-6-(4-fluorophenyl)-6-(3-hydroxypropyl)-3-((S)-1-(4-(5-methoxypyridin-3-yl)phenyl)ethyl)-1,3-oxazinan-2-one]
39.4	38.4	1	< 100	97.1	400	C=CC[C@]1(c2ccc(F)cc2)CCN([C@@H](C)c2ccc(-c3cncc(Cl)c3)cc2)C(=O)O1 [EXAMPLE 54, (R)-6-allyl-3-((S)-1-(4-(5-chloropyridin-3-yl)phenyl)ethyl)-6-(4-fluorophenyl)-1,3-oxazinan-2-one]
7.2		0.8	< 100	97.4	16900	C[C@@H](c1ccc(-c2ccccn2)cc1)N1CC[C@](CC(C)(C)O)(c2ccc(F)cc2)OC1=O [EXAMPLE 58, (S)-6-(4-fluorophenyl)-6-(2-hydroxy-2-methylpropyl)-3-((S)-1-(4-(pyridin-2-yl)phenyl)ethyl)-1,3-oxazinan-2-one]
5.1	9.9	0.5	< 100	100	10900	C[C@@H](c1ccc(-c2ccccn2)cc1)N1CC[C@](CCCO)(c2ccc(F)cc2)OC1=O [EXAMPLE 59, (R)-6-(4-fluorophenyl)-6-(3-hydroxypropyl)-3-((S)-1-(4-(pyridin-2-yl)phenyl)ethyl)-1,3-oxazinan-2-one]
22.6	44.2	0.5	< 100	97.9	10900	Cc1cccc(-c2ccc([C@H](C)N3CC[C@](CCCO)(c4ccc(F)cc4)OC3=O)cc2)n1 [EXAMPLE 62, (R)-6-(4-fluorophenyl)-6-(3-hydroxypropyl)-3-((S)-1-(4-(6-methylpyridin-2-yl)phenyl)ethyl)-1,3-oxazinan-2-one]
6.2	8.2	0.8	< 100	99.6	4700	COc1ccc(-c2ccc([C@H](C)N3CC[C@](CC(C)(C)O)(c4ccc(F)cc4)OC3=O)cc2)cn1 [EXAMPLE 64, (S)-6-(4-fluorophenyl)-6-(2-hydroxy-2-methylpropyl)-3-((S)-1-(4-(6-methoxypyridin-3-yl)phenyl)ethyl)-1,3-oxazinan-2-one]
3.8	8.8	0.4	< 100	99	4000	COc1ccc(-c2ccc([C@H](C)N3CC[C@](CCCO)(c4ccc(F)cc4)OC3=O)cc2)cn1 [EXAMPLE 65, (R)-6-(4-fluorophenyl)-6-(3-hydroxypropyl)-3-((S)-1-(4-(6-methoxypyridin-3-yl)phenyl)ethyl)-1,3-oxazinan-2-one]
		32.8	< 100	72.4	> 30000	Cc1nnc(CC[C@]2(c3ccccc3)CCN([C@@H](C)c3ccc(-c4ccc(C#N)cn4)cc3)C(=O)O2)o1 [EXAMPLE 145, 6-(4-((S)-1-((R)-6-(2-(5-methyl-1,3,4-oxadiazol-2-yl)ethyl)-2-oxo-6-phenyl-1,3-oxazinan-3-yl)ethyl)phenyl)nicotinonitrile]
		17.4	< 100	78.9	6100	Cc1nnc(CC[C@]2(c3ccccc3)CCN([C@@H](C)c3ccc(-c4ccc(C#N)cn4)cc3)C(=O)O2)s1 [EXAMPLE 146, 6-(4-((S)-1-((R)-6-(2-(5-methyl-1,3,4-thiadiazol-2-yl)ethyl)-2-oxo-6-phenyl-1,3-oxazinan-3-yl)ethyl)phenyl)nicotinonitrile]
